Columns and labels:
ALKL1196M (GST-His-tag) = biological target: T1, ALKL1196M (GST-His-tag) (Homo sapiens, UniProt Q9UM73, L1196M); assay: Radiometric protein kinase assay (33PanQuinase Activity Assay), ALK L1196M; type: biochemical; conditions: ATP 0.3 μM
T1 construct: either as full-length or enzymatically active fragments; purchased ProQinase GmbH (Freiburg, Germany)
Experimental: A proprietary radiometric protein kinase assay (33PanQuinase® Activity Assay) developed by ProQuinase GmbH (Freiburg, Germany) was used for measuring the kinase activity of selected protein kinases. All assays were performed in FlashPlates™ wells 96 Perkin Elmer (Boston, Mass., USA) in a reaction volume of 50 μl. The reaction mixture was obtained in 4 steps in the following order: • 1. 10 μl of a solution of non-radioactive ATP in water; • 2. 25 μl of assay buffer/[γ-^33P]-ATP mixture • 3. 5 μl of test sample in 10% DMSO • 4. 10 μl of enzyme/substrate mixture
All protein kinases provided by ProQinase were expressed in Sf9 insect cells or in E. coli as recombinant GST-fusion proteins or His-tagged proteins, either as full-length or enzymatically active fragments. […] Kinases from external vendors (CAR=Carna Biosciences Inc.; INV=Life Technologies (Invitrogen Corporation); MIL=Merck-Millipore (Millipore Corporation), were expressed, purified and quality-controlled by virtue of the vendors readings.
A stock solution of compound of formula (I) was diluted to 5×10-04M/100% DMSO. […] Incorporation of 33Pi (counting of “cpm”) was determined with a microplate scintillation counter (Microbeta, Wallac). […]
Based on each 10 corresponding residual activities, IC50 values were calculated using Prism 5.04 for Windows (Graphpad, San Diego, Calif.). […]

BaF3 NPM-ALK C1156Y = biological target: T2, BaF3 NPM-ALK C1156Y (Homo sapiens, UniProt Q9UM73, C1156Y, cells depend on it); assay: Tritiated thymidine uptake cell proliferation assay, BaF3 NPM-ALK C1156Y; type: cell-based, murine; conditions: cell line BaF3 NPM-ALK C1156Y; read-out: IC50 of cellular proliferation, BaF3 NPM-ALK C1156Y
T2 construct: fused on or other part: P06748 (Nucleophosmin)
Experimental: Method: Tritiated Thymidine Uptake Cell Proliferation Assay
The following procedure was used with parent untransformed BaF3 cells, BaF3 cells transformed with the oncogenic fusion protein NPM/ALK, NPM/ALK positive SUDHL-1 cells, NPM/ALK positive SUPM2, ALK-negative HL60 cells, NPM/ALK positive KARPAS-299 cells. The parent untransformed BaF3 cells or Alk-negative HL60 cells are used as controls. Cells were seeded in U-bottomed 96-well plates at 10000 cells/well in a volume of 100 μl in supplemented medium. In the case of the parent untransformed BaF3 cells, the medium was supplemented with IL-3. Serial dilutions of inhibitors were added to the appropriate wells and volumes adjusted to 200 μl. Controls were treated with the equivalent volume of vehicle, DMSO, alone. Plates were incubated at 37° C. for 72 h. 3[H]-thymidine (1 μCi/well) was added for the last 16 h of incubation. Cells were harvested on to paper filters and 3[H]-thymidine incorporation was measured using a scintillation counter (1430 MicroBeta, Wallac, Turku, Finland). The 50% inhibitory concentration (IC50) was defined as the concentration of inhibitor, expressed in nanomolar units, that gave a 50% decrease in 3[H]-thymidine uptake compared with controls.
In Table 4 are reported the IC50 of cellular proliferation assays of example 3 versus ALK positive, mutated and negative cell lines.

T1 sequence (Q9UM73 19-1620 L1196M): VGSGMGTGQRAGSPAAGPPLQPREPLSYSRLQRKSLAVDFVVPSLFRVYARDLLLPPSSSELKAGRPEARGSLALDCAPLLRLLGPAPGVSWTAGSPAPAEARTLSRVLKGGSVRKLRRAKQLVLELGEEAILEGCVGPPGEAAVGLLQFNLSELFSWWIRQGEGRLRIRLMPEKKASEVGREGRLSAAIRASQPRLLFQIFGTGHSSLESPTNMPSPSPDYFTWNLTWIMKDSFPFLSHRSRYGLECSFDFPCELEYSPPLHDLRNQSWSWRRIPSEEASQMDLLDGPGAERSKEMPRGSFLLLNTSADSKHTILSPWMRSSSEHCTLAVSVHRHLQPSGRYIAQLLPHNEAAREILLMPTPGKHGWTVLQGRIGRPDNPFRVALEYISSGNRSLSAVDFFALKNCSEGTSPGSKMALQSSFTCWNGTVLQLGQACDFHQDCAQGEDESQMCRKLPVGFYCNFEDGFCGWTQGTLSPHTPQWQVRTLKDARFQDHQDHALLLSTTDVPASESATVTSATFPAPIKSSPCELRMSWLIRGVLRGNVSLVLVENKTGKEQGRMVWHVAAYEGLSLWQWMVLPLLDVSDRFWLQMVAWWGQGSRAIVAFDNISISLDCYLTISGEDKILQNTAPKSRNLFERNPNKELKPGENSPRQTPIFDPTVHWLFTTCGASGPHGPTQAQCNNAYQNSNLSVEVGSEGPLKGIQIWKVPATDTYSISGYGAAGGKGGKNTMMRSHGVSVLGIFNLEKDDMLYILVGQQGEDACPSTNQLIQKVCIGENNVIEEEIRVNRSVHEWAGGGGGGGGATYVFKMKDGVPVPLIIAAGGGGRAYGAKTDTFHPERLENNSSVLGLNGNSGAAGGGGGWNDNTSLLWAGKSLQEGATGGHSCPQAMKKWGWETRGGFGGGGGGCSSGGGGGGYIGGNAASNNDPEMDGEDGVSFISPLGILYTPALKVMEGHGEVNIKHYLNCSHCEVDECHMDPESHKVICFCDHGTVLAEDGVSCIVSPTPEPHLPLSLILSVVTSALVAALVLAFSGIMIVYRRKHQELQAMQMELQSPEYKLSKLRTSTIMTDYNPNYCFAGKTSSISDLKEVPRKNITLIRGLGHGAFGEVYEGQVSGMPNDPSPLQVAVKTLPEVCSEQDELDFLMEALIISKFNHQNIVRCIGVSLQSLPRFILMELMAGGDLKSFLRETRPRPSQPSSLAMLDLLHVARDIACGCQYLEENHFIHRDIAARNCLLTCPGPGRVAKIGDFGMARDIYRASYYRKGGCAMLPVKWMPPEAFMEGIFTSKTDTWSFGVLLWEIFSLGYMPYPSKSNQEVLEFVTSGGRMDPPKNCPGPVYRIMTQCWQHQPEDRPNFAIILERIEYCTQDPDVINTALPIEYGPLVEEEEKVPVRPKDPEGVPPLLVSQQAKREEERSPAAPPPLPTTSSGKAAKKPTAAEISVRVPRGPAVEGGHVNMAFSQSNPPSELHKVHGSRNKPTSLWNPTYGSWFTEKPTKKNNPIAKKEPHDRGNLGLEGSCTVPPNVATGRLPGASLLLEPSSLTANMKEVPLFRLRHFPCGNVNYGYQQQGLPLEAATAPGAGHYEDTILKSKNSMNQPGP
T2 sequence (Q9UM73 whole entry C1156Y, the tested form may be a part): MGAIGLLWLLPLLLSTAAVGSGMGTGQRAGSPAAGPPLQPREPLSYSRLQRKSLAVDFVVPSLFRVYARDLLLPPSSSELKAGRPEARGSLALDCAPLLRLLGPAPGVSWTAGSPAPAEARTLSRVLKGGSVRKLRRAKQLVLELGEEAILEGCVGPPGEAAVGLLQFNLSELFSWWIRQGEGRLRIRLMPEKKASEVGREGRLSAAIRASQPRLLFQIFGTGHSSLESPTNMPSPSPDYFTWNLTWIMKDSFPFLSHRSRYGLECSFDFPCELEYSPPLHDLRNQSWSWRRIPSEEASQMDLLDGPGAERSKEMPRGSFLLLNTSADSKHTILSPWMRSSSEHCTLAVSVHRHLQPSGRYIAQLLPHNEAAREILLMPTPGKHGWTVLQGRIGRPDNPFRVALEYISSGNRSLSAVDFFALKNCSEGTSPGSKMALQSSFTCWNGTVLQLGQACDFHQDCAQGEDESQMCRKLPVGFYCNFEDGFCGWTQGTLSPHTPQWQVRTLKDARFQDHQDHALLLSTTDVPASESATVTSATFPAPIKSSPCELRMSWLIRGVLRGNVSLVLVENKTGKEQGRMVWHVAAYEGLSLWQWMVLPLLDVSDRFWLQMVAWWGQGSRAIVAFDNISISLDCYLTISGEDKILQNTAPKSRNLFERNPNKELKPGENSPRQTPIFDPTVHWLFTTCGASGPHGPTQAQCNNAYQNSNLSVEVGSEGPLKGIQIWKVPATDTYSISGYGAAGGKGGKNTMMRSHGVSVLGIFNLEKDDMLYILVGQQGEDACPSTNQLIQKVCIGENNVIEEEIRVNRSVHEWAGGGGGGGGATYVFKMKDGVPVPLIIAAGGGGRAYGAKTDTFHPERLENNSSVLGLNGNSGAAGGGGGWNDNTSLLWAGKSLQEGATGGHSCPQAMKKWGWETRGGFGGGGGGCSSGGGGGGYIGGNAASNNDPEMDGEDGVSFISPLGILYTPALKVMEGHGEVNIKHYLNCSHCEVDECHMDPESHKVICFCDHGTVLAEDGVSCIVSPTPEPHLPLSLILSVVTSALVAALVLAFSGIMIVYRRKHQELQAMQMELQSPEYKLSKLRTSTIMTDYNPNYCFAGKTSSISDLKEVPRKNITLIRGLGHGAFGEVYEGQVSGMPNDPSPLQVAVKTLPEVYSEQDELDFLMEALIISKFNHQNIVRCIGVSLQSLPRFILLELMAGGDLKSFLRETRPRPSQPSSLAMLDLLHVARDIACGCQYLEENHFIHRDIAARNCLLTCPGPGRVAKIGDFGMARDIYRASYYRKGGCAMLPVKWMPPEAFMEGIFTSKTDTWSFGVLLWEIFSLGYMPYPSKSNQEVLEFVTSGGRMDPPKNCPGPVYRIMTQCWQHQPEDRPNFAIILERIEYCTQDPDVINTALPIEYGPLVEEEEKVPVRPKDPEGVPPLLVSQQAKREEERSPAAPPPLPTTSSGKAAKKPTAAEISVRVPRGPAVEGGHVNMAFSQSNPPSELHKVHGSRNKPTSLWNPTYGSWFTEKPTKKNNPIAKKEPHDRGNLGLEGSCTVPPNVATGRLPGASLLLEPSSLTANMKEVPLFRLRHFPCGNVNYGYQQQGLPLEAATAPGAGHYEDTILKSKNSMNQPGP

**Q.** What does the source list for CN1CCN(c2ccc(C(=O)Nc3n[nH]c4cc(-c5ccc(O)cc5)c(Cc5cc(F)cc(F)c5)cc34)c(NC3CCOCC3)c2)CC1 [Example 3, N-[5-[(3,5-difluorophenyl)methyl]-6-(4-hydroxyphenyl)-1H-indazol-3-yl]-4-(4-methylpiperazin-1-yl)-2-(tetrahydropyran-4-ylamino)benzamide]?
**A.** IC50 (ALKL1196M (GST-His-tag)): 45 nM; GI50 (BaF3 NPM-ALK C1156Y): 34 nM
